# Assay results as given in BindingDB's records for doi:10.1016/j.bmcl.2005.11.092 (Astrazeneca R&D, 2006).
# pIC50: −log10 of the molar value.
# Molecular target: Metabotropic glutamate receptor 5 (Homo sapiens, UniProt P41594)
# Assay: Inhibition of glutamate-induced calcium influx in human mGluR5d by FLIPR
# Sequence of Metabotropic glutamate receptor 5 (P41594 whole entry): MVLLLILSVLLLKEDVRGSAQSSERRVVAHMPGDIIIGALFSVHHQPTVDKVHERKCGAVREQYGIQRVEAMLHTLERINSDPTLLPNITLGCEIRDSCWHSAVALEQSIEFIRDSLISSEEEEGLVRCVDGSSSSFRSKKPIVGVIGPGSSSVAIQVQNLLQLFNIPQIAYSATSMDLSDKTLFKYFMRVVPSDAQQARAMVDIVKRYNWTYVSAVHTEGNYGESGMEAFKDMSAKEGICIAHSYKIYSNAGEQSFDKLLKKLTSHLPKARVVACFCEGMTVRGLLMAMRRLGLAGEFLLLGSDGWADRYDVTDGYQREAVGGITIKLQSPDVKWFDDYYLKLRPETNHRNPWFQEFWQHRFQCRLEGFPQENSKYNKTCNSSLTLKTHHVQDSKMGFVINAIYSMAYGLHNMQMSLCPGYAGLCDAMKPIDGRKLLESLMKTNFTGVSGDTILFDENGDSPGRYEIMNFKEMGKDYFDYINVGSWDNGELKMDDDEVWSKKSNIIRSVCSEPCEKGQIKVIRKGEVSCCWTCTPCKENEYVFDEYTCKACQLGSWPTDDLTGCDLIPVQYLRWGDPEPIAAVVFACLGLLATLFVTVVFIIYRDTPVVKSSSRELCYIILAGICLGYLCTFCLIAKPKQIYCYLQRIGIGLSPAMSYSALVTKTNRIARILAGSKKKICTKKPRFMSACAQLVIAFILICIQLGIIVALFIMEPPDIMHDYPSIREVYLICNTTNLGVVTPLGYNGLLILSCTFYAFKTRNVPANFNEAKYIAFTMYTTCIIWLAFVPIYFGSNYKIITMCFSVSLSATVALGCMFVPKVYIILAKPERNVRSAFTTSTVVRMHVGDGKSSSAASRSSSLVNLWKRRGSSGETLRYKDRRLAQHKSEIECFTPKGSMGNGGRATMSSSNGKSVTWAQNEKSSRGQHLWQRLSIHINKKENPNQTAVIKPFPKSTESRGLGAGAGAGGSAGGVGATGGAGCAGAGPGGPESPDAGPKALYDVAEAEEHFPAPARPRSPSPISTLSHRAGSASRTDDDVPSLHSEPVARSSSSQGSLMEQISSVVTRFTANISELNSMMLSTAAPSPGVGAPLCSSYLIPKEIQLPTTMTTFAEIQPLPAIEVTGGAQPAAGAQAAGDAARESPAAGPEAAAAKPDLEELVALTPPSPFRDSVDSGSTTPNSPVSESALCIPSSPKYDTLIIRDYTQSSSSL
row,SMILES,pIC50
1,"Cn1cc(O)nc1NC(=O)Nc1cc(Cl)cc(Cl)c1 [1-(3,5-dichlorophenyl)-3-(1-methyl-4-oxoimidazolidin-2-ylidene)urea]",< 5.00
2,"Cc1ccc(NC(=O)Nc2nc(O)c3n2CCC3)cc1Cl [1-(3-chloro-4-methylphenyl)-3-(1-oxo-hexahydropyrrolo[1,2-e]imidazol-3-ylidene)urea]",< 5.00
3,"O=C(Nc1ccc(Cl)cc1)Nc1nc(O)c2n1CCC2 [1-(4-chlorophenyl)-3-(1-oxo-hexahydropyrrolo[1,2-e]imidazol-3-ylidene)urea]",< 5.00
4,CCCCCCNC(=O)Nc1nc(O)cn1C [1-hexyl-3-(1-methyl-4-oxoimidazolidin-2-ylidene)urea],< 5.00
5,COC(=O)c1cccc(NC(=O)Nc2nc(O)cn2C)c1 [methyl 3-(3-(1-methyl-4-oxoimidazolidin-2-ylidene)ureido)benzoate],< 5.00

# The remaining lines, values ahead:
row,pIC50,SMILES
1,5.31,Cn1cc(O)nc1NC(=O)Nc1cccs1 [1-(1-methyl-4-oxoimidazolidin-2-ylidene)-3-(thiophen-2-yl)urea]
2,< 5.00,"Cc1ccccc1NC(=O)Nc1nc(O)c2n1CCC2 [1-(1-oxo-hexahydropyrrolo[1,2-e]imidazol-3-ylidene)-3-o-tolylurea]"
3,< 5.00,"Cc1cccc(NC(=O)Nc2nc(O)c3n2CCC3)c1C [1-(2,3-dimethylphenyl)-3-(1-oxo-hexahydropyrrolo[1,2-e]imidazol-3-ylidene)urea]"
4,< 5.00,"Cc1ccc(C)c(NC(=O)Nc2nc(O)c3n2CCC3)c1 [1-(2,5-dimethylphenyl)-3-(1-oxo-hexahydropyrrolo[1,2-e]imidazol-3-ylidene)urea]"
5,5.31,Cn1cc(O)nc1NC(=O)Nc1ccccc1 [(E)-1-(1-methyl-4-oxoimidazolidin-2-ylidene)-3-phenylurea]
